The values that follow come from PMC12527922, “Cocaine chemogenetics blunts drug-seeking by synthetic physiology” (Nature, 2025).

Like-named read-outs stand apart in the source and are kept apart here. Some results are limits rather than exact numbers.

The test deals with α7–5HT3 mutant chimeric channels (Homo sapiens, UniProt P36544, Q139K). The test is described as follows: cell-based. Type of test: cell-based, human α7 nAChR LBD, mouse 5HT3 IPD.
Sequence of α7–5HT3 mutant chimeric channels (P23979 242-489): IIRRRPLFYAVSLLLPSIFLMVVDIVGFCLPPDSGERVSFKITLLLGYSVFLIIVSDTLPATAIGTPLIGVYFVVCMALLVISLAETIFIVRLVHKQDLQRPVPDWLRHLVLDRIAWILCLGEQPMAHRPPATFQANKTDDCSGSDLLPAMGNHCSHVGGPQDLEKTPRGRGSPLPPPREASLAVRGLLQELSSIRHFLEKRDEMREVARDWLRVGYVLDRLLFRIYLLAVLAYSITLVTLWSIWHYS
Sequence of α7–5HT3 mutant chimeric channels (P36544 23-224 Q139K): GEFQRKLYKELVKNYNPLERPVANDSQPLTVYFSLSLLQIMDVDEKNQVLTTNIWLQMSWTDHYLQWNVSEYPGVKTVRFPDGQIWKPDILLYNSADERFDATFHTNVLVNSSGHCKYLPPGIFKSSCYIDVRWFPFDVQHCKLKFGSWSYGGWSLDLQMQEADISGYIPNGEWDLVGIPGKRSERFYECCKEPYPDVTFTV

Take `COC(=O)[C@H]1[C@@H](OC(=O)c2ccccc2)C[C@@H]2CC[C@H]1N2C` [cocaine]: the half-maximal effective concentration (EC50) was over 30 µM. In addition, the EC50 (read-out: EC50 at a7 5HT3 Q139K, Avg, sheet 1d, Avg) is over 30 µM.

In general, EC50 refers to the concentration that produces a half-maximal response.
